For 19 compounds, melting point results are on record in article PMC6514607, “Synthesis of Chromen-4-One-Oxadiazole Substituted Analogs as Potent β-Glucuronidase Inhibitors” (Molecules, 2019).

Structures are written as SMILES.

For `O=c1cc(-c2ccc(-c3nnc(-c4ccc(Cl)cc4)o3)cc2)oc2ccccc12` [Compound 1, 2-(4-(5-(4-Chlorophenyl)-1,3,4-oxadiazol-2-yl)phenyl)-4H-chromen-4-one], the melting point (usually the temperature of the solid-liquid transition) lay within 288 to 289 °C. In turn, `O=c1cc(-c2ccc(-c3nnc(-c4cccc(Cl)c4)o3)cc2)oc2ccccc12` [Compound 2, 2-(4-(5-(3-Chlorophenyl)-1,3,4-oxadiazol-2-yl)phenyl)-4H-chromen-4-one] had a melting point of 282 to 283 °C. `O=c1cc(-c2ccc(-c3nnc(Cc4ccccc4Cl)o3)cc2)oc2ccccc12` [Compound 3, 2-(4-(5-(2-Chlorobenzyl)-1,3,4-oxadiazol-2-yl)phenyl)-4H-chromen-4-one] yielded a melting point of 276 to 277 °C. In turn, `O=c1cc(-c2ccc(-c3nnc(-c4ccc(F)cc4)o3)cc2)oc2ccccc12` [Compound 4, 2-(4-(5-(4-Fluorophenyl)-1,3,4-oxadiazol-2-yl)phenyl)-4H-chromen-4-one] returned a melting point of 299 to 300 °C.

The compound `O=c1cc(-c2ccc(-c3nnc(-c4cccc(F)c4)o3)cc2)oc2ccccc12` [Compound 5, 2-(4-(5-(3-Fluorophenyl)-1,3,4-oxadiazol-2-yl)phenyl)-4H-chromen-4-one] gave a melting point of 294 to 295 °C. The value for `O=c1cc(-c2ccc(-c3nnc(-c4ccccc4F)o3)cc2)oc2ccccc12` [Compound 6, 2-(4-(5-(2-Fluorophenyl)-1,3,4-oxadiazol-2-yl)phenyl)-4H-chromen-4-one] was 291 to 292 °C; that for `Cc1ccc(-c2nnc(-c3ccc(-c4cc(=O)c5ccccc5o4)cc3)o2)cc1` [Compound 7, 2-(4-(5-(p-Tolyl)-1,3,4-oxadiazol-2-yl)phenyl)-4H-chromen-4-one] was 270 to 271 °C; that for `Cc1cccc(-c2nnc(-c3ccc(-c4cc(=O)c5ccccc5o4)cc3)o2)c1` [Compound 8, 2-(4-(5-(m-Tolyl)-1,3,4-oxadiazol-2-yl)phenyl)-4H-chromen-4-one] was 264 to 265 °C. Take `Cc1ccccc1-c1nnc(-c2ccc(-c3cc(=O)c4ccccc4o3)cc2)o1` [Compound 9, 2-(4-(5-(o-Tolyl)-1,3,4-oxadiazol-2-yl)phenyl)-4H-chromen-4-one]: the melting point fell in the range of 260 to 261 °C. With `O=c1cc(-c2ccc(-c3nnc(-c4ccc([N+](=O)[O-])cc4)o3)cc2)oc2ccccc12` [Compound 10, 2-(4-(5-(4-Nitrophenyl)-1,3,4-oxadiazol-2-yl)phenyl)-4H-chromen-4-one], the melting point was 304 to 305 °C.

Compound `O=c1cc(-c2ccc(-c3nnc(-c4cccc([N+](=O)[O-])c4)o3)cc2)oc2ccccc12` [Compound 11, 2-(4-(5-(3-Nitrophenyl)-1,3,4-oxadiazol-2-yl)phenyl)-4H-chromen-4-one] displayed a melting point of 296 to 297 °C. The value for `O=c1cc(-c2ccc(-c3nnc(-c4ccccc4[N+](=O)[O-])o3)cc2)oc2ccccc12` [Compound 12, 2-(4-(5-(2-Nitrophenyl)-1,3,4-oxadiazol-2-yl)phenyl)-4H-chromen-4-one] was 287 to 288 °C. Compound `COc1ccc(-c2nnc(-c3ccc(-c4cc(=O)c5ccccc5o4)cc3)o2)cc1` [Compound 13, 2-(4-(5-(4-Methoxyphenyl)-1,3,4-oxadiazol-2-yl)phenyl)-4H-chromen-4-one] returned a melting point of 307 to 308 °C.

The compound `COc1cccc(-c2nnc(-c3ccc(-c4cc(=O)c5ccccc5o4)cc3)o2)c1` [Compound 14, 2-(4-(5-(3-Methoxyphenyl)-1,3,4-oxadiazol-2-yl)phenyl)-4H-chromen-4-one] showed a melting point of 299 to 300 °C. In turn, `COc1ccccc1-c1nnc(-c2ccc(-c3cc(=O)c4ccccc4o3)cc2)o1` [Compound 15, 2-(4-(5-(2-Methoxyphenyl)-1,3,4-oxadiazol-2-yl)phenyl)-4H-chromen-4-one] yielded a melting point of 286 to 287 °C. `O=c1cc(-c2ccc(-c3nnc(-c4ccccn4)o3)cc2)oc2ccccc12` [Compound 16, 2-(4-(5-(Pyridin-2-yl)-1,3,4-oxadiazol-2-yl)phenyl)-4H-chromen-4-one] came in with a melting point of 270 to 271 °C. For `O=c1cc(-c2ccc(-c3nnc(-c4cccnc4)o3)cc2)oc2ccccc12` [Compound 17, 2-(4-(5-(Pyridin-3-yl)-1,3,4-oxadiazol-2-yl)phenyl)-4H-chromen-4-one], the melting point was in the range of 280 to 281 °C.

Turning to `O=c1cc(-c2ccc(-c3nnc(-c4ccncc4)o3)cc2)oc2ccccc12` [Compound 18, 2-(4-(5-(Pyridin-4-yl)-1,3,4-oxadiazol-2-yl)phenyl)-4H-chromen-4-one], the melting point lay within 288 to 289 °C. Compound `O=c1cc(-c2ccc(-c3nnc(-c4ccccc4)o3)cc2)oc2ccccc12` [Compound 19, 2-(4-(5-Phenyl-1,3,4-oxadiazol-2-yl)phenyl)-4H-chromen-4-one] had a melting point of 280 to 281 °C.
